# Source: ChEMBL document CHEMBL6096697, “Structure-Guided Discovery of Novel N4-(Substituted Thiazol-2-yl)-N2-(4-Substituted phenyl)pyrimidine-2,4-Diamines as Potent CDK2 and CDK9 Dual Inhibitors with High Oral Bioavailability” (J Med Chem, 2025)
# Activity calls are given as the source filed them. No cut-off for these calls is given here.
# What was measured:
# [1] = biological target: CDK9/cyclin T1 (Homo sapiens) (UniProt O60563+P50750); test: Inhibition of CDK9/cyclin T (unknown origin) using […] at 1 uM incubated for 40 mins in presence of ATP by Kinase-Glo assay relative to control; assay type: protein-complex assay
# [2] = Inhibition of CDK9/cyclin T (unknown origin) using […] incubated for 40 mins in presence of ATP by Kinase-Glo assay; set-up: species or system Homo sapiens
# HCT-116 [3] = test: Cytotoxicity against human HCT-116 cells assessed as cell growth inhibition incubated for 48 hrs by MTT assay; assay type: functional, cell-based; conditions: HCT-116, 48 h
# [4] = biological target: Cyclin-dependent kinase 7/ cyclin H (Homo sapiens, UniProt P50613); test: Inhibition of CDK7/cyclin H (unknown origin) using […] incubated for 40 mins in presence of ATP by Kinase-Glo assay; assay type: protein-complex assay
# Chain of Cyclin-dependent kinase 7/ cyclin H (P51946 whole entry): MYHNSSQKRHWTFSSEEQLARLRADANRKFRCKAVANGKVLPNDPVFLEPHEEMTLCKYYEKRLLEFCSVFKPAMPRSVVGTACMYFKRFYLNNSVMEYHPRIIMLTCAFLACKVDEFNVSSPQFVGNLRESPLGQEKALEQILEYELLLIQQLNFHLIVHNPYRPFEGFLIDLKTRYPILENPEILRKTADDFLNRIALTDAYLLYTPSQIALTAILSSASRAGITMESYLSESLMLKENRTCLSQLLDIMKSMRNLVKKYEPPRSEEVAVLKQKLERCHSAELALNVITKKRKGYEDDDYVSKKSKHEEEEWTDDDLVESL
# Chain of Cyclin-dependent kinase 7/ cyclin H (P50613 whole entry): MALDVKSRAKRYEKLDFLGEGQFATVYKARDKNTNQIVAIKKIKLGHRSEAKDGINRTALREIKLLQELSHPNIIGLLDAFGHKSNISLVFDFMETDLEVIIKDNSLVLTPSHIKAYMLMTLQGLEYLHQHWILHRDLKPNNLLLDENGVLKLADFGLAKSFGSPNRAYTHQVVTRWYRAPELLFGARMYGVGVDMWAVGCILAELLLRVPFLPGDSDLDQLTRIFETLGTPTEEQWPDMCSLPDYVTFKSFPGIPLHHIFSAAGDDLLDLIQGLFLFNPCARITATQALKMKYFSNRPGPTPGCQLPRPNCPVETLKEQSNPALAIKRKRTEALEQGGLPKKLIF
# MCF7 = test: Antiproliferative activity against human MCF7 cells assessed as cell growth inhibition incubated for 48 hrs by MTT assay; assay type: functional, cell-based; conditions: MCF7, 48 h
# HT-29 = test: Antiproliferative activity against human HT-29 cells assessed as cell growth inhibition incubated for 48 hrs by MTT assay; assay type: functional, cell-based; conditions: HT-29, 48 h
# HepG2 = test: Antiproliferative activity against human HepG2 cells assessed as cell growth inhibition incubated for 48 hrs by MTT assay; assay type: functional, cell-based; conditions: HepG2, 48 h
# MV4-11 = test: Antiproliferative activity against human MV4-11 cells assessed as cell growth inhibition incubated for 48 hrs by MTT assay; assay type: functional, cell-based; conditions: MV4-11, 48 h
# HCT-116 [5] = test: Induction of cell cycle arrest in human HCT-116 cells assessed as accumulation at sub-G1 phase at 0.4 uM incubated for 24 hrs by PI staining based flow cytometry (reference value: 2.45 +/- 0.49 %); assay type: functional
# HCT-116 [6] = test: Induction of cell cycle arrest in human HCT-116 cells assessed as accumulation at G2/M phase at 0.4 uM incubated for 24 hrs by PI staining based flow cytometry (reference value: 20.6 +/- 3.38 %); assay type: functional
# HCT-116 [7] = test: Induction of cell cycle arrest in human HCT-116 cells assessed as accumulation at sub-G1 phase at 0.8 uM incubated for 24 hrs by PI staining based flow cytometry (reference value: 2.45 +/- 0.49 %); assay type: functional
# HCT-116 [8] = test: Induction of cell cycle arrest in human HCT-116 cells assessed as accumulation at S phase at 0.8 uM incubated for 24 hrs by PI staining based flow cytometry (reference value: 20.82 +/- 1.24 %); assay type: functional
# HeLa [9] = test: Induction of cell cycle arrest in human HeLa cells assessed as accumulation at S phase at 0.9 uM incubated for 24 hrs by PI staining based flow cytometry (reference value: 17.84 +/- 1.89 %); assay type: functional
# HeLa [10] = test: Induction of cell cycle arrest in human HeLa cells assessed as accumulation at G1/G0 phase at 3.6 uM incubated for 24 hrs by PI staining based flow cytometry (reference value: 57.63 +/- 1.7 %); assay type: functional
# HeLa [11] = test: Induction of cell cycle arrest in human HeLa cells assessed as accumulation at S phase at 3.6 uM incubated for 24 hrs by PI staining based flow cytometry (reference value: 17.84 +/- 1.89 %); assay type: functional
# HCT-116 [12] = test: Induction of cell cycle arrest at G2/M phase in human HCT-116 cells assessed as decrease in cyclin B1 level incubated for 48 hrs by Western blot analysis; assay type: functional, cell-based; conditions: dose <= 0.8 µM
# HeLa [13] = test: Induction of cell cycle arrest at G2/M phase in human HeLa cells assessed as decrease in p-Cdc2 level at 1.8 uM by Western blot analysis; assay type: functional, cell-based; conditions: time <= 48.0 hrs
# HCT-116 [14] = test: Induction of apoptosis in human HCT-116 cells assessed as necrotic cells at 0.2 uM incubated for 24 hrs by PI staining based flow cytometry (reference value: 18.9 %); assay type: functional
# HCT-116 [15] = test: Induction of apoptosis in human HCT-116 cells assessed as early apoptotic cells at 0.4 uM incubated for 24 hrs by PI staining based flow cytometry (reference value: 0.19 %); assay type: functional
# HCT-116 [16] = test: Induction of apoptosis in human HCT-116 cells assessed as late apoptotic cells at 0.4 uM incubated for 24 hrs by PI staining based flow cytometry (reference value: 1.11 %); assay type: functional
# HCT-116 [17] = test: Induction of apoptosis in human HCT-116 cells assessed as late apoptotic cells at 0.8 uM incubated for 24 hrs by PI staining based flow cytometry (reference value: 1.11 %); assay type: functional
# HeLa [18] = test: Induction of apoptosis in human HeLa cells assessed as early apoptotic cells at 0.9 uM incubated for 24 hrs by PI staining based flow cytometry (reference value: 0.8 %); assay type: functional
# HeLa [19] = test: Induction of apoptosis in human HeLa cells assessed as late apoptotic cells at 1.8 uM incubated for 24 hrs by PI staining based flow cytometry (reference value: 3.85 %); assay type: functional
# HeLa [20] = test: Induction of apoptosis in human HeLa cells assessed as necrotic cells at 1.8 uM incubated for 24 hrs by PI staining based flow cytometry (reference value: 25.5 %); assay type: functional
# HeLa [21] = test: Induction of apoptosis in human HeLa cells assessed as late apoptotic cells at 3.6 uM incubated for 24 hrs by PI staining based flow cytometry (reference value: 3.85 %); assay type: functional
# HCT-116 [22] = test: Induction of apoptosis in human HCT-116 cells assessed as total apoptotic cells at 0.8 uM incubated for 24 hrs by PI staining based flow cytometry (reference value: 1.30 %); assay type: functional
# HeLa [23] = test: Effect on Bax level in human HeLa cells upto 3.6 uM incubated for 24 hrs by Western blot analysis; assay type: functional, cell-based
# HCT-116 [24] = test: Induction of apoptosis in human HCT-116 cells assessed as increase in cleaved PARP level upto 0.8 uM incubated for 24 hrs by Western blot analysis; assay type: functional, cell-based
# [25] = MRT (0 to infinity) in Sprague-Dawley rat at 2 mg/kg, iv measured for 36 hrs by MRM analysis; assay type: ADME, organism-based; conditions: in vivo
# [26] = Clearance in Sprague-Dawley rat at 2 mg/kg, iv measured for 36 hrs by MRM analysis; assay type: ADME, organism-based; conditions: in vivo
# [27] = Apparent volume of distribution in Sprague-Dawley rat at 2 mg/kg, iv measured for 36 hrs by MRM analysis; assay type: ADME, organism-based; conditions: in vivo, read-out: Vz
# [28] = AUC (0 to infinity) in Sprague-Dawley rat at 10 mg/kg, po measured for 36 hrs by MRM analysis; assay type: ADME, organism-based; conditions: in vivo
# [29] = MRT (0 to t) in Sprague-Dawley rat at 10 mg/kg, po measured for 36 hrs by MRM analysis; assay type: ADME, organism-based; conditions: in vivo
# [30] = MRT (0 to infinity) in Sprague-Dawley rat at 10 mg/kg, po measured for 36 hrs by MRM analysis; assay type: ADME, organism-based; conditions: in vivo
# [31] = Clearance in Sprague-Dawley rat at 10 mg/kg, po measured for 36 hrs by MRM analysis; assay type: ADME, organism-based; conditions: in vivo
# [32] = Toxicity in Balb/c-nu nude mouse xenografted with human HCT-116 cells assessed as body weight loss at 35 to 70 mg/kg/day, po treated for 30 days; assay type: organism-based; conditions: in vivo, 720 h, dose 35-70 mg/kg/day, time 30 day
# [33] = Toxicity in Balb/c-nu nude mouse xenografted with human HCT-116 cells assessed as toxicity in heart at 35 to 70 mg/kg/day, po treated for 30 days by H and E staining based analysis; assay type: organism-based; conditions: in vivo, 720 h, dose 35-70 mg/kg/day, time 30 day
smiles,measurement,setting,value
Cc1cnc(Nc2ccc(S(N)(=O)=O)cc2)nc1Nc1nccs1,inhibition,[1],99%
same,IC50,[2],9 nM
same,IC50,HCT-116 [3],462 nM
same,IC50,[4],215 nM
same,IC50,MCF7,3640 nM
same,IC50,HT-29,3620 nM
same,IC50,HepG2,2090 nM
same,IC50,MV4-11,121 nM
same,Activity,HCT-116 [5],1.91%
same,Activity,HCT-116 [6],33.27%
same,Activity,HCT-116 [7],1.71%
same,Activity,HCT-116 [8],20.18%
same,Activity,HeLa [9],21.67%
same,Activity,HeLa [10],39.16%
same,Activity,HeLa [11],17.55%
same,Activity,HCT-116 [12],Dose-dependent-effect
same,Activity,HeLa [13],Time-dependent-effect
same,Activity,HCT-116 [14],3.6%
same,Activity,HCT-116 [15],17.9%
same,Activity,HCT-116 [16],22.9%
same,Activity,HCT-116 [17],27.7%
same,Activity,HeLa [18],65.8%
same,Activity,HeLa [19],25.9%
same,Activity,HeLa [20],0.22%
same,Activity,HeLa [21],27.3%
same,Activity,HCT-116 [22],43.2%
same,Activity,HeLa [23],No effect
same,Activity,HCT-116 [24],Active
same,MRT inf,[25],2.8 h
same,CL,[26],1130 mL/min/kg
same,Vd,[27],275 L/kg
same,AUC(0-inf),[28],146 ng·h/mL
same,MRT last at 36 h,[29],6.5 h
same,MRT inf,[30],7 h
same,CL/F,[31],1180 mL/min/kg
same,Activity,[32],Non-toxic
same,Activity,[33],Non-toxic
